The values below come from publication PMC5729930, “Bitopic fluorescent antagonists of the A2A adenosine receptor based on pyrazolo[4,3-e][1,2,4]triazolo[1,5-c]pyrimidin-5-amine functionalized congeners” (MedChemComm, 2017).

The structures appear in SMILES notation. Read-outs that look alike come from different tables or passages of the source. Marks after values point to notes of the source that are not given here.

For one experiment, the target named is T1, A2AAR (Homo sapiens, UniProt P29274).
T1 construct: expressed in transfected cells
Kind of experiment: Competition radioligand binding, hA2AAR ([3H]ZM241385 or [3H]CGS21680). To be noted: human A2AAR, HEK-293 membranes, [3H]ZM241385 1.0 nM, 1 h 25 °C, mean ± SEM; read-out: Affinity, Ki, A2A. The procedure:
(§1) The affinity of the amine congeners and other antagonists was measured using standard radioligand binding assays for hA1, A2A and A3ARs (Table 1).[1],[13],[14],[22] Membranes of human embryonic kidney (HEK)293 cells expressing the AR of interest were used in the assay. Primary amine congeners 6a–6d containing spacers of 2–5 methylenes were similar in terms of hA2AAR affinity (Ki 6–9 nM), with the butylamino congener 6c displaying the highest A2AAR selectivity in the series. The affinity of this compound for the hA3AR was determined to be 6.0 μM, with only slightly higher hA1AR affinity. Homologation to 6 methylenes in compound 6e lowered A2AAR affinity. […] No dependence of the affinity on the chain length was evident when comparing AlexaFluor647 conjugates 9 and 10.
Fig. 1 Antagonist radioligand ([^3H]2, 1.0 nM) binding inhibition curves for the hA2AAR for four antagonist fluorescent conjugates. Compound numbers: MRS7322 9, MRS7395 10, MRS7396 11 and MRS7416 12. Membranes from HEK-293 cells expressing the hA2AAR were used, and their incubation was performed for 1 h at 25 °C. Results are expressed as the mean ± SEM.
(§2) Cell culture for membrane binding assays and flow cytometry: HEK-293 cells stably expressing the A2AAR were grown in Dulbecco’s Modified Eagle’s Medium (DMEM) with 10% FBS, 100 units/ml penicillin, […] streptomycin, 2 mM L-glutamine and 0.500 mg/mL G418 Sulfate (Geneticin). […]
(§3) Radioligand binding assays: Cell membranes were prepared as reported.1
(§4) Binding assays were carried out using standard radioligands and membrane preparations from HEK-293 cells stably expressing the human (h) A1, A2A or A3ARs or mouse (m) A1, A2A or A3ARs. The radioligands used were: A1AR, [3H]8-cyclopentyl-1,3-dipropylxanthine 14; A2AAR, [3H]2; A3AR, [125I]N6-(4-amino-3-iodobenzyl)adenosine-5′-N-methyluronamide 16. The radioligand for archival A2AAR affinity data presented in Table 1 was [3H]2-[p-(2-carboxyethyl)phenyl-ethylamino]-5′-N-ethylcarboxamidoadenosine 15. Nonspecific binding was determined using 10 µM 8-[4-[[[[(2-aminoethyl)amino]carbonyl]methyl]oxy]phenyl]-1,3-dipropylxanthine 17 (A1AR and A2AAR) or 10 µM adenosine-5′-N-ethyluronamide 18 (A3AR). HEK-293 cells expressing recombinant mA1, A2A, or A3AR […]
(§5) Protein was determined as reported.2 In all the binding experiments, IC50 values and Ki values were calculated using GraphPad Prism software (San Diego, CA). Values are expressed as mean±SEM. […]
(§6) Med. Chem. Comm., 2015, 6:555-563.
(§7) 2. Bradford, M. M. A rapid and sensitive method for the quantitation of microgram quantities of protein utilizing the principle of protein -dye binding. Anal. Biochem. 1976, 72, 248-254.

Experiment [1] has as its target T2, A1AR (Homo sapiens, UniProt P30542).
T2 construct: expressed in transfected cells
T2 sequence (P30542 1-326): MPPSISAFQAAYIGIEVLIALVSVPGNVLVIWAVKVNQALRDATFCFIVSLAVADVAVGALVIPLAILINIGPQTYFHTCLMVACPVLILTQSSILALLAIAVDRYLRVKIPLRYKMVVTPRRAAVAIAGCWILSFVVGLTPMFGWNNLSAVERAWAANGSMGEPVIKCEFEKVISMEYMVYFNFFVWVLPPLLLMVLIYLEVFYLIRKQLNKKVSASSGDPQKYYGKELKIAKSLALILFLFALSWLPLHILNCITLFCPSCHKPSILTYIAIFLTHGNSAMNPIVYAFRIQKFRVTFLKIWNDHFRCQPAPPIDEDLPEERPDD
Kind of experiment: Competition radioligand binding, hA1AR ([3H]DPCPX). Particulars: [3H]DPCPX 0.5 nM; for Ki: HEK-293 membranes, 1 h 25 °C, mean ± SEM, read-out: Affinity, Ki, A1; for inhibition at 10 µM: percent inhibition at 10 μM. The procedure:
as §1, with “10. […]” for “10.”
as §3, §4, §5, §6, §7

Experiment [2] deals with T3, A3AR (Homo sapiens, UniProt P0DMS8).
T3 construct: expressed in transfected cells
T3 sequence (P0DMS8 1-318): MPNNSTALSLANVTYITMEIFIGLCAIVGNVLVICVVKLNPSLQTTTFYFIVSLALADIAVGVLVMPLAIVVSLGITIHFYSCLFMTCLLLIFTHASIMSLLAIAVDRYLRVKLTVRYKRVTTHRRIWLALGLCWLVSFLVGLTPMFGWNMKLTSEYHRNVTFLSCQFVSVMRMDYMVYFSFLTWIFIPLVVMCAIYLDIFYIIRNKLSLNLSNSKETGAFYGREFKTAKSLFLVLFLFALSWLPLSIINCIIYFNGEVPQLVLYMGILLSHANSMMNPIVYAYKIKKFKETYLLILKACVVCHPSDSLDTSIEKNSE
Put plainly: Competition radioligand binding, hA3AR ([125I]I-AB-MECA). Particulars: for inhibition at 10 µM: percent inhibition at 10 μM, read-out: % inhib, A3. The procedure: as §1, with “10. […]” for “10.”
as §3, §4, §5, §6, §7

A further experiment deals with T4, 5HT2B receptor (Homo sapiens, UniProt P41595).
T4 construct: PDSP (screening service)
Put plainly: PDSP off-target radioligand binding, 5HT2B. To be noted: PDSP radioligand binding inhibition. As to the method:
(§8) . Off-target binding activities at 45 diverse receptors were determined by PDSP[25] for selected compounds: 6c and 13 (ESI ^†). […]; 1.92 μM, 5HT2B receptor. Thus, the primary amine precursor of the fluorescent conjugates 10–12 was not promiscuous in its interaction with other proteins, i.e. this chemical series is not associated with pan-assay interference compounds.[26]
(§9) Chinese hamster ovary (CHO) cells stably expressing the human A2AAR were cultured in Dulbecco's Modified Eagle Medium (Mediatech, Manassas, VA) supplemented with 10% fetal bovine serum, 100 units/ml penicillin, 100 µg/ml streptomycin and 2 µmol/ml glutamine. Cells were plated in 96-well plates in 100 µl medium. After 24 h, the medium was removed and cells were washed three times with 100 µl DMEM, containing 50 mM HEPES, pH 7.4. Cells were treated with antagonists (or medium for control) in the presence of rolipram (10 µM) and adenosine deaminase (3 units/ml) and 5 min later with agonist for 20 min. The reaction was terminated by removal of the supernatant, and cells were lysed upon the addition of 100 µl of lysis buffer (0.3% Tween-20). cAMP was measured using ALPHAScreen cAMP kits (PerkinElmer, Boston, MA) as instructed by the manufacturer.
(§10) Refer to: http://pdspdb.unc.edu for full list of comprehensive screen at 45 targets.
(§11) 5HT2A serotonin receptor: […]

Another experiment concerns the target T5, 5HT2A serotonin receptor (Homo sapiens, UniProt P28223).
T5 construct: PDSP (screening service)
Kind of experiment: PDSP off-target radioligand binding, 5HT2A. Particulars: PDSP radioligand binding inhibition. The procedure:
as §8, §9, §10, §11

For experiment [3], the target named is T3, A3AR. Also on record: method as in earlier work. Particulars: percent inhibition at 10 μM, 14 (Kumar et al. and Kecskés et al.); cited from earlier work.
Experiment [4] concerns the target T2, A1AR. Also on record: method as in earlier work. To be noted: percent inhibition at 10 μM, 14 (Kumar et al. and Kecskés et al.); cited from earlier work.
A further experiment concerns the target T6, mA3AR (Mus musculus, UniProt Q61618).
T6 construct: expressed in transfected cells; host or cells: HEK-293
T6 sequence (Q61618 1-319): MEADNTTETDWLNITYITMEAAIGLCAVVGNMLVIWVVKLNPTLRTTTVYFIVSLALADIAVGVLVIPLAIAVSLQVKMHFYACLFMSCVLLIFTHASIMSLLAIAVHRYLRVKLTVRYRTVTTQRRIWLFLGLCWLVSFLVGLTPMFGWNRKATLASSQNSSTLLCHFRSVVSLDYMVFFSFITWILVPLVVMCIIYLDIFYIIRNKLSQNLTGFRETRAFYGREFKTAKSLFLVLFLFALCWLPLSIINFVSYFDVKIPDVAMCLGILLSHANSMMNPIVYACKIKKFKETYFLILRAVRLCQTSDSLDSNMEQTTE
Kind of experiment: Competition radioligand binding, mA3AR. To be noted: mouse A3AR, percent inhibition at 10 μM; read-out: % inhib, A3 (m) (converted). The procedure: as §1, with “10. […]” for “10.”
as §3, §4, §5, §6, §7

Another experiment concerns the target T7, mA1AR (Mus musculus, UniProt Q60612).
T7 construct: expressed in transfected cells; host or cells: HEK-293
T7 sequence (Q60612 1-326): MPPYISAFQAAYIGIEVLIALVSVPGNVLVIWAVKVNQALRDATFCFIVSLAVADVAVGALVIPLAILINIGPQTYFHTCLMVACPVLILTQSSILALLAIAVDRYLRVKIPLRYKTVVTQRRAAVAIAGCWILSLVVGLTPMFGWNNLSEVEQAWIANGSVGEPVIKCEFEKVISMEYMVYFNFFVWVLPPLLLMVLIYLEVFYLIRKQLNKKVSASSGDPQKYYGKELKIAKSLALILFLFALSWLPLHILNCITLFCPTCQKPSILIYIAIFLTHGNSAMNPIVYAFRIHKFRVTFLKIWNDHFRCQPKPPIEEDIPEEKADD
Kind of experiment: Competition radioligand binding, mA1AR. To be noted: mouse A1AR, percent inhibition at 10 μM. As to the method: as §1, with “10. […]” for “10.”
as §3, §4, §5, §6, §7

The next experiment addresses T8, mA2AAR (Mus musculus, UniProt Q60613).
T8 construct: expressed in transfected cells; host or cells: HEK-293
Put plainly: Competition radioligand binding, mA2AAR. Particulars: mouse A2AAR, HEK-293 membranes, mean ± SEM; read-out: Affinity, Ki, A2A (m) (converted). As to the method:
as §1, §2, §3, §4, §5, §6, §7

Setting [5] is: HEK-293 membranes, [125I]I-AB-MECA 0.2 nM, 1 h 25 °C, mean ± SEM, read-out: Affinity, Ki, A3.

T1 sequence (P29274 whole entry): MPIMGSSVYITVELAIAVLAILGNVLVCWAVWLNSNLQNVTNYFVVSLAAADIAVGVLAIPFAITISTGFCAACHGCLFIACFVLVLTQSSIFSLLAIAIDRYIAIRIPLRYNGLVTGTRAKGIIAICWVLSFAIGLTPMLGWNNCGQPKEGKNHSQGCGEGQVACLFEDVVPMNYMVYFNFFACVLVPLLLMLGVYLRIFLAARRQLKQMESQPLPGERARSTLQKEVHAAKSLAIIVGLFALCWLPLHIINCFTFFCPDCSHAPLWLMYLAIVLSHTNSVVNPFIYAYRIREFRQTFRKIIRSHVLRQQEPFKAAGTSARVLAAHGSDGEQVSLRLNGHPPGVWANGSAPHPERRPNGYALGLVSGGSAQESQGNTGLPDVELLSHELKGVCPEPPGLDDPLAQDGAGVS
T5 sequence (P28223 whole entry): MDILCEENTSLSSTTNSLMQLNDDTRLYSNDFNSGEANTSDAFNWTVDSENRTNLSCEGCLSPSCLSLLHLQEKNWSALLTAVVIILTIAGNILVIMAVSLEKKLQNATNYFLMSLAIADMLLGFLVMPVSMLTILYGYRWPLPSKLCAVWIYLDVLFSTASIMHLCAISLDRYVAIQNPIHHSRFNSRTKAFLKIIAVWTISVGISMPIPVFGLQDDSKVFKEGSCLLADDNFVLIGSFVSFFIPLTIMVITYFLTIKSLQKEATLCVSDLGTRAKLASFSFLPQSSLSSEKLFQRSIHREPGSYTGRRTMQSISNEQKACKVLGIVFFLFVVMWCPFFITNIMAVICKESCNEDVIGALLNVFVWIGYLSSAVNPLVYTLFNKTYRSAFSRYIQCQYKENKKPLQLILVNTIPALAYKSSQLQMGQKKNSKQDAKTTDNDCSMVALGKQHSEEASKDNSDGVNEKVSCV
T4 sequence (P41595 whole entry): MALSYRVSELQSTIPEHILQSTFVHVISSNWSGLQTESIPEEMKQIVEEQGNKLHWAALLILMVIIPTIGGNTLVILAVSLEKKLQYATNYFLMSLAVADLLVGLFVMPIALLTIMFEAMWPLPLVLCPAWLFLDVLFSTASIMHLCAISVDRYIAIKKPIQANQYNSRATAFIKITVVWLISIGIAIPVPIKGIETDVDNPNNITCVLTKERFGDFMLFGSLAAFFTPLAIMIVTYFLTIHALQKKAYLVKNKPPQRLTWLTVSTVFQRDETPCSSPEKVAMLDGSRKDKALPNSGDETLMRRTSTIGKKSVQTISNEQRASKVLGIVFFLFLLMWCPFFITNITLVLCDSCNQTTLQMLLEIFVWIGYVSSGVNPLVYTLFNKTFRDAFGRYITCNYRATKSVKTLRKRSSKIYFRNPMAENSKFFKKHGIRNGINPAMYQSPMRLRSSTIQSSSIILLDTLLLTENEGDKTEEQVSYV
T8 sequence (Q60613 whole entry): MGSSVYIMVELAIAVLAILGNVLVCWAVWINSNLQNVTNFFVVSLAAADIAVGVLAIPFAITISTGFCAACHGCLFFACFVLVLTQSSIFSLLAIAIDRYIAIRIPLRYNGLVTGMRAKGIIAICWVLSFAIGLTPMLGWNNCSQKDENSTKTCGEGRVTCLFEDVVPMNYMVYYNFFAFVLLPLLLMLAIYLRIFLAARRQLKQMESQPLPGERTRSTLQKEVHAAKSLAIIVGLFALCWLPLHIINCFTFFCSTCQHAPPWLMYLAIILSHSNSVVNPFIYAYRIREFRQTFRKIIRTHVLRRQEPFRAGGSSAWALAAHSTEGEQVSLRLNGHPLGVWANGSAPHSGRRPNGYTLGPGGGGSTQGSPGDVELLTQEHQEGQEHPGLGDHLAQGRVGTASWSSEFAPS

With `NCCCNC(=O)COc1ccc(CCCn2ncc3c2nc(N)n2nc(-c4ccco4)nc32)cc1` [6b], the Ki at A2AAR was 9.29 ± 7.92 nM; at A1AR [1], 1300 ± 350 nM; at A3AR [2] (setting [5]), 2170 ± 660 nM.

On to `NCCCCNC(=O)COc1ccc(CCCn2ncc3c2nc(N)n2nc(-c4ccco4)nc32)cc1` [6c], for which the Ki turned out to be 1920 nM on 5HT2B receptor; 6.46 ± 1.63 nM at A2AAR; 3360 nM at 5HT2A serotonin receptor; 2390 ± 100 nM at A1AR [1]; 5990 ± 2900 nM at A3AR [2] (setting [5]); 6000 nM on A3AR [2] (read-out: affinity for the hA3AR).

On to `NCCCCCNC(=O)COc1ccc(CCCn2ncc3c2nc(N)n2nc(-c4ccco4)nc32)cc1` [6d], for which the Ki at A2AAR turned out to be 6.36 ± 3.58 nM; on A1AR [1], 1910 ± 120 nM; on A3AR [2] (setting [5]), 656 ± 132 nM.

Take `NCCCCCCNC(=O)COc1ccc(CCCn2ncc3c2nc(N)n2nc(-c4ccco4)nc32)cc1` [6e]: the Ki on A2AAR came to 22.8 ± 8.45 nM; on A1AR [1] it was 6500 ± 2830 nM; on A3AR [2] (setting [5]), 2070 ± 850 nM.

With `COc1ccc(CCCn2ncc3c2nc(N)n2nc(-c4ccco4)nc32)cc1` [compound 3, 5-amino-7-(3-(4-methoxy)phenylpropyl)-2-(2-furyl)pyrazolo[4,3-e]-1,2,4-triazolo[1,5-c]pyrimidine], the “% inhib, A3” value on A3AR [3] is “(67 ± 1%) ^c”. Besides, the “% inhib, A1” value at A1AR [4] was “(35 ± 5%) ^c”.

As for `N=c1ccc2c(-c3ccc(C(=O)NCCNC(=O)COc4ccc(CCCn5ncc6c5nc(N)n5nc(-c7ccco7)nc65)cc4)cc3C(=O)O)c3ccc(N)c(S(=O)(=O)O)c3oc-2c1S(=O)(=O)O` [compound 5], on A3AR [3], the “% inhib, A3” value is “(4 ± 2%) ^c”. For the same compound, the “% inhib, A1” value at A1AR [4] is “(20 ± 3%) ^c”.

On to `Nc1nc2c(cnn2CCCc2ccc(O)cc2)c2nc(-c3ccco3)nn12` [compound 7], for which the “% inhib, A3” value on A3AR [3] is “(34 ± 3%) ^c”. In addition, the “% inhib, A1” value on A1AR [4] is “(66 ± 2%) ^c”.

With `CC1(C)C(/C=C/C=C/C=C2/N(CCCS(=O)(=O)O)c3ccc(S(=O)(=O)O)cc3C2(C)CCCCCC(=O)NCCNC(=O)COc2ccc(CCCn3ncc4c3nc(N)n3nc(-c5ccco5)nc43)cc2)=[N+](CCCS(=O)(=O)O)c2ccc(S(=O)(=O)[O-])cc21` (stereo not drawn) [compound 9], the inhibition at 10 µM on mA3AR is 4%; on mA1AR it was 3%; at A1AR [1] it was 13%; on A3AR [2] ([125I]I-AB-MECA 0.2 nM) it was 21%. In addition, the Ki on A2AAR was 332 ± 165 nM; on mA2AAR it was 458 nM.

`CC1(C)C(/C=C/C=C/C=C2/N(CCCS(=O)(=O)O)c3ccc(S(=O)(=O)O)cc3C2(C)CCCCCC(=O)NCCCCNC(=O)COc2ccc(CCCn3ncc4c3nc(N)n3nc(-c5ccco5)nc43)cc2)=[N+](CCCS(=O)(=O)O)c2ccc(S(=O)(=O)[O-])cc21` (stereo not drawn) [compound 10]: the Ki at A2AAR was 295 ± 176 nM. Moreover, the inhibition at 10 µM amounted to 20% at A1AR [1] and 21% at A3AR [2] ([125I]I-AB-MECA 0.2 nM).
